Measurements published in PubChem BioAssay (NCI).
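Assay format: 96-well plates, 48-hour exposure. TGI denotes the concentration required for complete inhibition of growth.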

How the values were obtained:
Experiment in all cases: NCI anticancer screen, dose series, 48 h
786-0 renal = tested on: 786-0 renal
A498 renal = tested on: A498 renal
A549 NSCLC = tested on: A549 NSCLC
ACHN renal = tested on: ACHN renal
CAKI-1 renal = tested on: CAKI-1 renal
CCRF-CEM leukemia = tested on: CCRF-CEM leukemia
COLO 205 colon = tested on: COLO 205 colon
DLD-1 colon = tested on: DLD-1 colon
DMS 114 small cell lung = tested on: DMS 114 small cell lung
DMS 273 small cell lung = tested on: DMS 273 small cell lung
EKVX NSCLC = tested on: EKVX NSCLC
HCC-2998 colon = tested on: HCC-2998 colon
HCT-116 colon = tested on: HCT-116 colon
HCT-15 colon = tested on: HCT-15 colon
HL-60(TB) leukemia = tested on: HL-60(TB) leukemia
HOP-18 NSCLC = tested on: HOP-18 NSCLC
HOP-62 NSCLC = tested on: HOP-62 NSCLC
HOP-92 NSCLC = tested on: HOP-92 NSCLC
HT29 colon = tested on: HT29 colon
IGROV1 ovarian = tested on: IGROV1 ovarian
K-562 leukemia = tested on: K-562 leukemia
KM12 colon = tested on: KM12 colon
KM20L2 colon = tested on: KM20L2 colon
LOX IMVI melanoma = tested on: LOX IMVI melanoma
LXFL 529 NSCLC = tested on: LXFL 529 NSCLC
M14 melanoma = tested on: M14 melanoma
M19-MEL melanoma = tested on: M19-MEL melanoma
MALME-3M melanoma = tested on: MALME-3M melanoma
MOLT-4 leukemia = tested on: MOLT-4 leukemia
NCI-H226 lung = tested on: NCI-H226 lung
NCI-H23 lung = tested on: NCI-H23 lung
NCI-H460 lung = tested on: NCI-H460 lung
NCI-H522 lung = tested on: NCI-H522 lung
OVCAR-3 ovarian = tested on: OVCAR-3 ovarian
OVCAR-4 ovarian = tested on: OVCAR-4 ovarian
OVCAR-5 ovarian = tested on: OVCAR-5 ovarian
OVCAR-8 ovarian = tested on: OVCAR-8 ovarian
RPMI-8226 leukemia = tested on: RPMI-8226 leukemia
SF-268 CNS = tested on: SF-268 CNS
SF-295 CNS = tested on: SF-295 CNS
SF-539 CNS = tested on: SF-539 CNS
SK-MEL-2 melanoma = tested on: SK-MEL-2 melanoma
SK-MEL-28 melanoma = tested on: SK-MEL-28 melanoma
SK-MEL-5 melanoma = tested on: SK-MEL-5 melanoma
SK-OV-3 ovarian = tested on: SK-OV-3 ovarian
SN12C renal = tested on: SN12C renal
SNB-19 CNS = tested on: SNB-19 CNS
SNB-75 CNS = tested on: SNB-75 CNS
SNB-78 CNS = tested on: SNB-78 CNS
SR leukemia = tested on: SR leukemia
SW-620 colon = tested on: SW-620 colon
TK-10 renal = tested on: TK-10 renal
U251 CNS = tested on: U251 CNS
UACC-257 melanoma = tested on: UACC-257 melanoma
UACC-62 melanoma = tested on: UACC-62 melanoma
UO-31 renal = tested on: UO-31 renal
XF 498 CNS = tested on: XF 498 CNS
RXF 393 renal = tested on: RXF 393 renal

O=C(COc1ccc(Cl)cc1)N1N=C(c2ccc(Cl)cc2)CC1(O)c1ccccc1 (stereo unspecified)
TGI (786-0 renal): 28.3 µM
TGI (A498 renal): 26.5 µM
TGI (A549 NSCLC): 34.7 µM
TGI (ACHN renal): > 100 µM
TGI (CAKI-1 renal): > 100 µM
TGI (CCRF-CEM leukemia): > 100 µM
TGI (COLO 205 colon): 54.6 µM
TGI (DLD-1 colon): 49.5 µM
TGI (DMS 114 small cell lung): > 100 µM
TGI (DMS 273 small cell lung): 33.1 µM
TGI (EKVX NSCLC): 91.4 µM
TGI (HCC-2998 colon): > 100 µM
TGI (HCT-116 colon): 26.3 µM
TGI (HCT-15 colon): > 58.1 µM
TGI (HL-60(TB) leukemia): 28 µM
TGI (HOP-18 NSCLC): > 100 µM
TGI (HOP-62 NSCLC): 57 µM
TGI (HOP-92 NSCLC): 44.1 µM
TGI (HT29 colon): 26.3 µM
TGI (IGROV1 ovarian): 61.6 µM
TGI (K-562 leukemia): > 42.7 µM
TGI (KM12 colon): 31.4 µM
TGI (KM20L2 colon): > 50.9 µM
TGI (LOX IMVI melanoma): 26.6 µM
TGI (LXFL 529 NSCLC): > 100 µM
TGI (M14 melanoma): 34.5 µM
TGI (M19-MEL melanoma): > 63.4 µM
TGI (MALME-3M melanoma): 47.4 µM
TGI (MOLT-4 leukemia): 30.6 µM
TGI (NCI-H226 lung): 48.1 µM
TGI (NCI-H23 lung): 33.9 µM
TGI (NCI-H460 lung): 35.7 µM
TGI (NCI-H522 lung): 50.2 µM
TGI (OVCAR-3 ovarian): 39.2 µM
TGI (OVCAR-4 ovarian): 21 µM
TGI (OVCAR-5 ovarian): 45.3 µM
TGI (OVCAR-8 ovarian): 30 µM
TGI (RPMI-8226 leukemia): > 37.6 µM
TGI (SF-268 CNS): > 100 µM
TGI (SF-295 CNS): 82 µM
TGI (SF-539 CNS): > 59.4 µM
TGI (SK-MEL-2 melanoma): 80.7 µM
TGI (SK-MEL-28 melanoma): 35.3 µM
TGI (SK-MEL-5 melanoma): 29.3 µM
TGI (SK-OV-3 ovarian): > 63.6 µM
TGI (SN12C renal): 11.4 µM
TGI (SNB-19 CNS): > 100 µM
TGI (SNB-75 CNS): > 72.7 µM
TGI (SNB-78 CNS): > 56.7 µM
TGI (SR leukemia): 17.7 µM
TGI (SW-620 colon): > 69.3 µM
TGI (TK-10 renal): > 78 µM
TGI (U251 CNS): 38.3 µM
TGI (UACC-257 melanoma): 44.3 µM
TGI (UACC-62 melanoma): 41.6 µM
TGI (UO-31 renal): > 100 µM
TGI (XF 498 CNS): > 100 µM

BrC1=CCC23CC=C(Br)[C@H]4CC2(COC3)C[C@@H]1O4 (stereo partly specified)
TGI (786-0 renal): > 100 µM
TGI (A549 NSCLC): > 100 µM
TGI (ACHN renal): > 100 µM
TGI (CCRF-CEM leukemia): 79.5 µM
TGI (COLO 205 colon): > 100 µM
TGI (DMS 114 small cell lung): > 100 µM
TGI (DMS 273 small cell lung): > 100 µM
TGI (EKVX NSCLC): > 100 µM
TGI (HCT-116 colon): > 100 µM
TGI (HCT-15 colon): > 100 µM
TGI (HL-60(TB) leukemia): 38.1 µM
TGI (HOP-62 NSCLC): > 100 µM
TGI (IGROV1 ovarian): > 100 µM
TGI (K-562 leukemia): 89 µM
TGI (KM12 colon): > 100 µM
TGI (KM20L2 colon): > 100 µM
TGI (LOX IMVI melanoma): > 100 µM
TGI (LXFL 529 NSCLC): > 100 µM
TGI (M14 melanoma): > 100 µM
TGI (M19-MEL melanoma): > 100 µM
TGI (MALME-3M melanoma): > 100 µM
TGI (MOLT-4 leukemia): 86 µM
TGI (NCI-H226 lung): > 100 µM
TGI (NCI-H23 lung): > 100 µM
TGI (NCI-H460 lung): > 100 µM
TGI (NCI-H522 lung): 66.2 µM
TGI (OVCAR-3 ovarian): > 100 µM
TGI (OVCAR-4 ovarian): > 100 µM
TGI (OVCAR-5 ovarian): 86.2 µM
TGI (OVCAR-8 ovarian): > 100 µM
TGI (RPMI-8226 leukemia): > 100 µM
TGI (RXF 393 renal): 93.5 µM
TGI (SF-268 CNS): 30.9 µM
TGI (SF-295 CNS): > 100 µM
TGI (SF-539 CNS): > 100 µM
TGI (SK-MEL-2 melanoma): > 100 µM
TGI (SK-MEL-28 melanoma): 62.1 µM
TGI (SK-MEL-5 melanoma): > 100 µM
TGI (SN12C renal): > 100 µM
TGI (SNB-19 CNS): > 100 µM
TGI (SNB-75 CNS): 41.6 µM
TGI (SNB-78 CNS): 93.6 µM
TGI (SR leukemia): > 100 µM
TGI (SW-620 colon): > 100 µM
TGI (TK-10 renal): > 100 µM
TGI (U251 CNS): > 100 µM
TGI (UACC-62 melanoma): > 100 µM
TGI (UO-31 renal): 82.4 µM
TGI (XF 498 CNS): > 100 µM
